Data taken from patent publication US20210038587A1, “METHODS AND COMPOSITIONS FOR TREATING NON-ERK MAPK PATHWAY INHIBITOR-RESISTANT CANCERS” (BIOMED VALLEY DISCOVERIES, INC., priority 2013, published 2021).

Assays:
Assay in all cases: Reverse Phase Protein Analysis (RPPA)
Conditions in all cases: % change from DMSO (matched cell line)
Colo205 = assay type: cell-based, human
HT29 = assay type: cell-based
Method: (§1) Control wells were treated with DMSO at 0.1% (v/v) for 6 hours prior to cell lysate generation. Samples were then analyzed using reverse-phase protein microarray technology (Theranostics Health).
(§2) Cell lines with common alterations in BRAF and RAS were assayed: BRAF^V600E mutant lines A375, Colo205, and HT29; KRAS^G12C-mutant cell line MIAPACa-2; KRAS^G13D-mutant cell line HCT116; and AN3Ca with atypical HRAS^F82L mutation. Changes in protein levels are shown as a percentage change from dimethyl sulfoxide (DMSO)-treated parental control (FIG. 32A and Table 23).

AN3Ca = assay type: cell-based
Method: as §1, §2

HCT116 = assay type: cell-based, human
Method: as §1, §2

## CC(C)Nc1cc(-c2c[nH]c(C(=O)N[C@H](CO)c3cccc(Cl)c3)c2)c(Cl)cn1 [BVD-523]
Colo205
  Avg (4ebp1 T70): −36.35%
  Avg (Akt S473): −5.78%
  Avg (Akt): −3.85%
  Avg (Bad S136): 5.05%
  Avg (Bad S155): −18.18%
  Avg (Bak): 3.79%
  Avg (Bax): 0.28%
  Avg (Bcl 2): −0.13%
  Avg (Bcl2 S70): −10.2%
  Avg (Bcl 2 T56): −11.84%
  Avg (Bim): 41.73%
  Avg (CREB S133): −2.67%
  Avg (Caspase 3 CL D175): −3.18%
  Avg (Caspase 7 Cl D198): 6.76%
  Avg (Chk1): −2.86%
  Avg (Chk1 S345): −4.63%
  Avg (Cyclin D1): −23.65%
  Avg (ERK 1 2): −18.83%
  Avg (ERK 1 2 T202 Y204): 14.39%
  Avg (MAK1 S360): 14.69%
  Avg (Mcl1): −2.7%
  Avg (Raptor S792): 0.41%
  Avg (Raptor): −7.14%
  Avg (Rictor): −5.21%
  Avg (Stat1): 0.53%
  Avg (Stat3): −2.58%
  Avg (bad S112): −31.51%
  Avg (c Fos): −12.25%
  Avg (mTOR S2448): −23.51%
  Avg (mTOR S2481): −1.33%
  Avg (mTOR): 12.77%
  Avg (p70 S6 Kinase): 0.14%
  Avg (p90 RSK S380): −50.84%
  Avg(S6 Ribo Prot S235 236): −96.15%
  Avg(S6 Ribo Prot S240 244): −97.33%
  Avg(Tuberin TSC2 Y1571): −3.48%
  Avg(p70 S6 Kinase S371 S394): −18.11%
  Avg(p70 S6 Kinase T389 T412): −36.4%
HT29
  Avg (4ebp1 T70): −41.47%
  Avg (Akt S473): −3.06%
  Avg (Akt): −13.41%
  Avg (Bad S136): 10.73%
  Avg (Bad S155): −25.9%
  Avg (Bak): −1.42%
  Avg (Bax): 8.39%
  Avg (Bcl 2): 10.68%
  Avg (Bcl2 S70): 2.83%
  Avg (Bcl 2 T56): −8.18%
  Avg (Bim): 2.81%
  Avg (CREB S133): −3.46%
  Avg (Caspase 3 CL D175): −7.03%
  Avg (Caspase 7 Cl D198): −6.93%
  Avg (Chk1): 7.4%
  Avg (Chk1 S345): −13.48%
  Avg (Cyclin D1): −37.21%
  Avg (ERK 1 2): −44.3%
  Avg (ERK 1 2 T202 Y204): 54.82%
  Avg (MAK1 S360): 1.49%
  Avg (Mcl1): −2.83%
  Avg (Raptor S792): −10.48%
  Avg (Raptor): −8.53%
  Avg (Rictor): −18.76%
  Avg (Stat1): 4.74%
  Avg (Stat3): −6.46%
  Avg (bad S112): −20.66%
  Avg (c Fos): −13.48%
  Avg (c Myc): 17.85%
  Avg (mTOR S2448): −20.68%
  Avg (mTOR S2481): −8.64%
  Avg (mTOR): 5.02%
  Avg (p70 S6 Kinase): −10.64%
  Avg (p90 RSK S380): −60.5%
  Avg(S6 Ribo Prot S235 236): −44.68%
  Avg(S6 Ribo Prot S240 244): −25.67%
  Avg(Tuberin TSC2 Y1571): 0.66%
  Avg(p70 S6 Kinase S371 S394): −35.94%
  Avg(p70 S6 Kinase T389 T412): −24.58%
AN3Ca
  Avg (4ebp1 T70): 32.17%
  Avg (Akt S473): 52.11%
  Avg (Akt): −22.43%
  Avg (Bad S136): −1.02%
  Avg (Bad S155): 0.66%
  Avg (Bak): 3.38%
  Avg (Bax): −10.47%
  Avg (Bcl 2): −16.83%
  Avg (Bcl2 S70): −14.81%
  Avg (Bcl 2 T56): −12.85%
  Avg (Bim): −12.57%
  Avg (CREB S133): 1.03%
  Avg (Caspase 3 CL D175): −10.8%
  Avg (Caspase 7 Cl D198): −12.35%
  Avg (Chk1): −8.45%
  Avg (Chk1 S345): −13.34%
  Avg (Cyclin D1): −0.69%
  Avg (ERK 1 2): −9.05%
  Avg (ERK 1 2 T202 Y204): 733.27%
  Avg (MAK1 S360): 0.49%
  Avg (Mcl1): −4.9%
  Avg (Raptor S792): −8.47%
  Avg (Raptor): −13.82%
  Avg (Rictor): −4.52%
  Avg (Stat1): −5.65%
  Avg (Stat3): −4.97%
  Avg (bad S112): −54.1%
  Avg (c Fos): −5.15%
  Avg (c Myc): −0.58%
  Avg (mTOR S2448): −10.79%
  Avg (mTOR S2481): 2.75%
  Avg (mTOR): 5.58%
  Avg (p70 S6 Kinase): −10.27%
  Avg (p90 RSK S380): −28.11%
  Avg(S6 Ribo Prot S235 236): −43.41%
  Avg(S6 Ribo Prot S240 244): −22.2%
  Avg(Tuberin TSC2 Y1571): 2.86%
  Avg(p70 S6 Kinase S371 S394): 32.26%
  Avg(p70 S6 Kinase T389 T412): −14.78%
HCT116
  Avg (4ebp1 T70): 4.03%
  Avg (Akt S473): −6.14%
  Avg (Akt): 4.41%
  Avg (Bad S136): −11.49%
  Avg (Bad S155): −30.72%
  Avg (Bak): −13.16%
  Avg (Bax): −0.8%
  Avg (Bcl 2): −3.59%
  Avg (Bcl2 S70): −8.23%
  Avg (Bcl 2 T56): −8.36%
  Avg (Bim): 12.44%
  Avg (CREB S133): −30.64%
  Avg (Caspase 3 CL D175): −10.11%
  Avg (Caspase 7 Cl D198): −21.09%
  Avg (Chk1): −11.26%
  Avg (Chk1 S345): −39.65%
  Avg (Cyclin D1): −69.62%
  Avg (ERK 1 2): −29.42%
  Avg (ERK 1 2 T202 Y204): 849.12%
  Avg (MAK1 S360): −13.45%
  Avg (Mcl1): −8.72%
  Avg (Raptor S792): −22.04%
  Avg (Raptor): −7.06%
  Avg (Rictor): −13.05%
  Avg (Stat1): −13.76%
  Avg (Stat3): −5.52%
  Avg (bad S112): −34.27%
  Avg (c Fos): −14.08%
  Avg (c Myc): −11.15%
  Avg (mTOR S2448): −12.78%
  Avg (mTOR S2481): −34.09%
  Avg (mTOR): −11.96%
  Avg (p70 S6 Kinase): −12.86%
  Avg (p90 RSK S380): −31.81%
  Avg(S6 Ribo Prot S235 236): −96.31%
  Avg(S6 Ribo Prot S240 244): −96.26%
  Avg(Tuberin TSC2 Y1571): −29.89%
  Avg(p70 S6 Kinase S371 S394): −16.9%
  Avg(p70 S6 Kinase T389 T412): −28.11%
